# Assays:
# M. luteus ATCC 10240 = assay: MIC, twofold serial microdilution; type: cell-based; details: Micrococcus luteus, ATCC10240; standard strain, 18 h, 35 °C
# Method: (§1) The antimicrobial activity of the compounds was tested on Gram-positive bacteria (Staphylococcus aureus NCTC 4163, Staphylococcus aureus ATCC 25923, Staphylococcus aureus ATCC 6538, Staphylococcus aureus ATCC 29213, Staphylococcus epidermidis ATCC 12228, Staphylococcus epidermidis ATCC 35984, Enterococcus faecalis ATCC 29212, Bacillus subtilis ATCC 6633, Bacillus cereus ATCC 11778, Micrococcus luteus ATCC 9341, Micrococcus luteus ATCC 10240); Gram-negative rods (Escherichia coli ATCC 10538, Escherichia coli ATCC 25922, Escherichia coli NCTC 8196, Proteus vulgaris NCTC 4635, Pseudomonas aeruginosa ATCC 15442, Pseudomonas aeruginosa NCTC 6749, Pseudomonas aeruginosa ATCC 27863, Bordetella bronchiseptica ATCC 4617) and yeasts (Candida albicans ATCC 10231, Candida albicans ATCC 90028, Candida parapsilosis ATCC 22019). Other microorganisms used were obtained from the collection of the Department of Pharmaceutical Microbiology, Medical University of Warsaw, Poland.
# (§2) Antibacterial activity was examined by the disc-diffusion method under standard conditions using Mueller-Hinton II agar medium (Becton Dickinson) according to CLSI (previously NCCLS) guidelines. Antifungal activities were assessed using Mueller-Hinton agar + 2% glucose and 0.5 µg/mL Methylene Blue Dye Medium. Sterile filter paper discs (9 mm diameter, Whatman No 3 chromatography paper) were dripped with tested compound solutions (in DMSO) to load 400 μg of a given compound per disc. Dry discs were placed on the surface of appropriate agar medium. The results (diameter of the growth inhibition zone) were read after 18 h of incubation at 35 °C. Minimal Inhibitory Concentration (MIC) was tested by the twofold serial microdilution method (in 96-well microtiter plates) using Mueller-Hinton Broth medium (Beckton Dickinson) for bacteria or RPMI-1640 medium for Candida species according to CLSI guidelines. The stock solution of tested agent was prepared in DMSO and diluted in sterile water. Concentrations of tested agents ranged from 0.125 to 512 µg/mL. The final inoculum of all studied microorganisms was 10^5 CFU/ mL^−1 (colony forming units per mL). Minimal inhibitory concentrations (the lowest concentration of a tested agent that prevents visible growth of a microorganism) were read after 18 h (bacteria) or 24 h (yeasts) of incubation at 35 °C.
# B. cereus ATCC 11778 = assay: MIC, twofold serial microdilution; type: cell-based; details: Bacillus cereus, ATCC11778; standard strain, 18 h, 35 °C
# Method: as §1, §2
# S. aureus ATCC 25923 = assay: MIC, twofold serial microdilution; type: cell-based; details: Staphylococcus aureus, ATCC25923; standard strain, 18 h, 35 °C
# Method: as §1, §2
# M. luteus ATCC 9341 = assay: MIC, twofold serial microdilution; type: cell-based; details: Micrococcus luteus, ATCC9341; standard strain, 18 h, 35 °C
# Method: as §1, §2
# E. faecalis ATCC 29212 = assay: MIC, twofold serial microdilution; type: cell-based; details: Enterococcus faecalis, ATCC29212; standard strain, 18 h, 35 °C
# Method: as §1, §2
# S. aureus ATCC 29213 = assay: MIC, twofold serial microdilution; type: cell-based; details: Staphylococcus aureus, ATCC29213; standard strain, 18 h, 35 °C
# Method: as §1, §2
# [1] = test system: S. epidermidis ATCC 12228; assay: MIC, twofold serial microdilution; type: cell-based; details: Staphylococcus epidermidis, ATCC12228; standard strain, 18 h, 35 °C
# Method: as §1, §2
# B. subtilis ATCC 6633 = assay: MIC, twofold serial microdilution; type: cell-based; details: Bacillus subtilis, ATCC6633; standard strain, 18 h, 35 °C
# Method: as §1, §2
# S. aureus ATCC 6538 = assay: MIC, twofold serial microdilution; type: cell-based; details: Staphylococcus aureus, ATCC6538; standard strain, 18 h, 35 °C
# Method: as §1, §2
# [2] = test system: S. epidermidis ATCC 35984; assay: MIC, twofold serial microdilution; type: cell-based; details: Staphylococcus epidermidis, ATCC35984; standard strain, 18 h, 35 °C
# Method: as §1, §2
# S. aureus NCTC 4163 = assay: MIC, twofold serial microdilution; type: cell-based; details: Staphylococcus aureus, NCTC4163; standard strain, 18 h, 35 °C
# Method: as §1, §2
# [3] = test system: S. epidermidis MRSE 411/11; assay: MIC, hospital methicillin-resistant strain; type: cell-based; details: Staphylococcus epidermidis
# Method: as §1, §2
# [4] = test system: S. epidermidis MRSE 412/11; assay: MIC, hospital methicillin-resistant strain; type: cell-based; details: Staphylococcus epidermidis
# Method: as §1, §2
# [5] = test system: S. epidermidis MRSE 413/11; assay: MIC, hospital methicillin-resistant strain; type: cell-based; details: Staphylococcus epidermidis
# Method: as §1, §2
# [6] = test system: S. epidermidis MRSE 407/11; assay: MIC, hospital methicillin-resistant strain; type: cell-based; details: Staphylococcus epidermidis
# Method: as §1, §2
# [7] = test system: S. epidermidis MRSE 406/11; assay: MIC, hospital methicillin-resistant strain; type: cell-based; details: Staphylococcus epidermidis
# Method: as §1, §2
# [8] = test system: S. epidermidis MRSE 403/11; assay: MIC, hospital methicillin-resistant strain; type: cell-based; details: Staphylococcus epidermidis
# Method: as §1, §2
# [9] = test system: S. epidermidis MRSE 405/11; assay: MIC, hospital methicillin-resistant strain; type: cell-based; details: Staphylococcus epidermidis
# Method: as §1, §2
# [10] = test system: S. epidermidis MRSE 409/11; assay: MIC, hospital methicillin-resistant strain; type: cell-based; details: Staphylococcus epidermidis
# Method: as §1, §2
# [11] = test system: S. epidermidis MRSE 422/11; assay: MIC, hospital methicillin-resistant strain; type: cell-based; details: Staphylococcus epidermidis
# Method: as §1, §2
# [12] = test system: S. epidermidis MRSE 404/11; assay: MIC, hospital methicillin-resistant strain; type: cell-based; details: Staphylococcus epidermidis
# Method: as §1, §2
# [13] = Cytotoxicity against mock-infected MT-4 cells (MTT); type: cell-based, human; details: human, concentration reducing viability of mock-infected MT-4 cells by 50%
# Method: (§3) Cell line supporting the multiplication of Human Immunodeficiency Virus type-1 (HIV-1) was the CD4+ human T-cells, derived from human hematological tumors, containing an integrated HTLV-1 genome (MT-4). Cells were purchased from American Type Culture Collection (ATCC). Human Immunodeficiency Virus type-1 (HIV-1) IIIB laboratory strain was obtained from the supernatant of the persistently infected H9/IIIB cells (NIH 1983).
# Exponentially growing MT-4 cells were seeded at an initial density of 1 × 10^5 cells/mL in 96-well plates in RPMI-1640 medium, supplemented with 10% fetal bovine serum (FBS), 100 units/mL penicillin G and 100 μg/mL streptomycin. Cell cultures were then incubated at 37 °C in a humidified, 5% CO2 atmosphere, in the absence or presence of serial dilutions of tested compounds. Cell viability was determined after 96 h at 37 °C by the 3-(4,5-dimethylthiazol-2-yl)-2,5-diphenyl-tetrazolium bromide (MTT) method.
# HIV-1 IIIB = assay: Anti-HIV-1 activity: protection of MT-4 cells from virus-induced cytopathogenicity (MTT); type: cell-based, Human Immunodeficiency Virus type-1; details: Human immunodeficiency virus 1, IIIB, MT4, 96 h; 50% protection of MT-4 cells from HIV-1 induced cytopathogenicity, MTT, 4-day incubation; read-out: HIV-1IIIB EC50
# Text: as §3
# The activity of compounds against HIV-1 was based on inhibition of virus-induced cytopathogenicity in MT-4 cell acutely infected with a multiplicity of infection (m.o.i.) of 0.01. Briefly, 50 μL of RPMI containing 1 × 10^4 MT-4 cells were added to each well of flat-bottom microtiter trays, containing 50 μL of RPMI without or with serial dilutions of test compounds. Then, 20 μL of a HIV-1 suspension containing 100 CCID50 were added. After a 4-day incubation at 37 °C, cell viability was determined by the MTT method.
# staphylococci = assay: MIC against staphylococci; type: cell-based; details: moderate activity
# Method: as §1, §2
Structure (SMILES),MIC (M. luteus ATCC 10240),MIC (B. cereus ATCC 11778),MIC (S. aureus ATCC 25923),MIC (M. luteus ATCC 9341),MIC (E. faecalis ATCC 29212),MIC (S. aureus ATCC 29213),MIC [1],MIC (B. subtilis ATCC 6633),MIC (S. aureus ATCC 6538),MIC [2],MIC (S. aureus NCTC 4163),MIC [3],MIC [4],MIC [5],MIC [6],MIC [7],MIC [8],MIC [9],MIC [10],MIC [11],also measured
"O=C(O)c1cn(C2CC2)c2cc(N3CCNCC3)c(F)cc2c1=O [Ciprofloxacin, reference compound]",2 µg/mL,0.25 µg/mL,0.5 µg/mL,1 µg/mL,1 µg/mL,0.5 µg/mL,0.25 µg/mL,< 0.12 µg/mL,0.25 µg/mL,0.25 µg/mL,0.25 µg/mL,4 µg/mL,64 µg/mL,32 µg/mL,64 µg/mL,0.5 µg/mL,16 µg/mL,4 µg/mL,2 µg/mL,4 µg/mL,MIC [12]: 64 µg/mL
"O=[N+]([O-])c1cc(NC(=S)Nc2ccccc2)ccc1Cl [Compound 23, 1-(4-chloro-3-nitrophenyl)-3-phenylthiourea]",8 µg/mL,8 µg/mL,16 µg/mL,4 µg/mL,16 µg/mL,16 µg/mL,16 µg/mL,8 µg/mL,16 µg/mL,16 µg/mL,16 µg/mL,16 µg/mL,32 µg/mL,16 µg/mL,16 µg/mL,16 µg/mL,16 µg/mL,16 µg/mL,16 µg/mL,16 µg/mL,CC50 at 96 h [13]: 23 µM; EC50 (HIV-1 IIIB): > 23 µM; melting point: 163 to 165 °C; MIC range towards staphylococci (staphylococci): 8 to 16 µg/mL; MIC [12]: 16 µg/mL

# Reference: publication PMC6222614, “Disubstituted 4-Chloro-3-nitrophenylthiourea Derivatives: Antimicrobial and Cytotoxic Studies” (Molecules : A Journal of Synthetic Chemistry and Natural …, 2018)
